Test results reported in US20210070748A1, “INHIBITORS OF BRUTONS TYROSINE KINASE” (Pharmacyclics LLC, priority 2015, published 2021).

Tests used:
Type in all cases: biochemical
BTK-WT = biological target: T1, BTK-WT (Homo sapiens, UniProt Q06187); test: Btk in vitro inhibitory activity (one of Method A TR-FRET, Method B electrophoretic mobility shift, Method C radiometric filter binding); conditions: D-compounds panel data; read-out: IC50 BTK-WT
T1 construct: purified from insect cells as a full-length construct containing an N-terminal 6X-His tag; His6 (N); made in house; host or cells: insect cells (baculovirus Sf21 in Method B)

ITK = biological target: T2, ITK (Homo sapiens, UniProt Q08881); test: Inhibition of a panel of kinases, in vitro HotSpot kinase assay: ITK; conditions: D-compounds panel data; 1 μM ATP
T2 sequence (Q08881 1-620): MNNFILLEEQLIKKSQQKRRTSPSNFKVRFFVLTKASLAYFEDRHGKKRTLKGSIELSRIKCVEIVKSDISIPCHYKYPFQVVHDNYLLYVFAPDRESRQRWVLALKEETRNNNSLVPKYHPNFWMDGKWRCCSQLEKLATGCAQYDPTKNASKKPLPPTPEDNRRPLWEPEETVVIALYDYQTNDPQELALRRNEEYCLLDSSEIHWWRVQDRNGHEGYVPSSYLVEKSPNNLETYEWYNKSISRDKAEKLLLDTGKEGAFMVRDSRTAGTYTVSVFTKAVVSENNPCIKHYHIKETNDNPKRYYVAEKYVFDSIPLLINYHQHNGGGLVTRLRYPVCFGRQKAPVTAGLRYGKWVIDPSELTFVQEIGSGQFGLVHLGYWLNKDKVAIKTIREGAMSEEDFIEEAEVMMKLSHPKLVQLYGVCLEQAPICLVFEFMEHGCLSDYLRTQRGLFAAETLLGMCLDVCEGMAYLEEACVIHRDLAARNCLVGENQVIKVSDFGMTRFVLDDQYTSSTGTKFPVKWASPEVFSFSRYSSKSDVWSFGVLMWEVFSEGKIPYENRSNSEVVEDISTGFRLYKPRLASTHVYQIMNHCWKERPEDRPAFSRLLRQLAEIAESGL
Experimental: (§1) The degree of inhibition of a panel of kinases is determined using the in vitro HotSpot kinase assay (purified enzymes, ^33P-ATP, an appropriate substrate and 1 μM ATP).

EGFR = EGFR (Homo sapiens, UniProt P00533); test: Inhibition of a panel of kinases, in vitro HotSpot kinase assay: EGFR; conditions: D-compounds panel data; 1 μM ATP
Experimental: as §1

LCK = LCK (Homo sapiens, UniProt P06239); test: Inhibition of a panel of kinases, in vitro HotSpot kinase assay: LCK; conditions: D-compounds panel data; 1 μM ATP; read-out: IC50 LCK
LCK, sequence (P06239 whole entry): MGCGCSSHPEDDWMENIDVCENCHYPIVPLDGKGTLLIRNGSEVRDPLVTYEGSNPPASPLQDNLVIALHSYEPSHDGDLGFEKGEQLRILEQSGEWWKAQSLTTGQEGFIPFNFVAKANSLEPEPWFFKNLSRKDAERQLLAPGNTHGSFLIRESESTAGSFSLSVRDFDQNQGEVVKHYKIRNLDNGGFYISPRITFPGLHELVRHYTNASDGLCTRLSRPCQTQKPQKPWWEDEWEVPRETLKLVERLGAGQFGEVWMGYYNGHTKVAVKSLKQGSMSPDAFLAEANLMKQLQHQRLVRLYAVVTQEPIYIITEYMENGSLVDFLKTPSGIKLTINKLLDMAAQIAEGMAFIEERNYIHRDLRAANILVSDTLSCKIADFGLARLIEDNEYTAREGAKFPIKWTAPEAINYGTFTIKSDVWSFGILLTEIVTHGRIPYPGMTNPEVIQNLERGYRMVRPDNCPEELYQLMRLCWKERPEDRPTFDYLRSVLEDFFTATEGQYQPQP

EGFR, sequence (P00533 25-1210): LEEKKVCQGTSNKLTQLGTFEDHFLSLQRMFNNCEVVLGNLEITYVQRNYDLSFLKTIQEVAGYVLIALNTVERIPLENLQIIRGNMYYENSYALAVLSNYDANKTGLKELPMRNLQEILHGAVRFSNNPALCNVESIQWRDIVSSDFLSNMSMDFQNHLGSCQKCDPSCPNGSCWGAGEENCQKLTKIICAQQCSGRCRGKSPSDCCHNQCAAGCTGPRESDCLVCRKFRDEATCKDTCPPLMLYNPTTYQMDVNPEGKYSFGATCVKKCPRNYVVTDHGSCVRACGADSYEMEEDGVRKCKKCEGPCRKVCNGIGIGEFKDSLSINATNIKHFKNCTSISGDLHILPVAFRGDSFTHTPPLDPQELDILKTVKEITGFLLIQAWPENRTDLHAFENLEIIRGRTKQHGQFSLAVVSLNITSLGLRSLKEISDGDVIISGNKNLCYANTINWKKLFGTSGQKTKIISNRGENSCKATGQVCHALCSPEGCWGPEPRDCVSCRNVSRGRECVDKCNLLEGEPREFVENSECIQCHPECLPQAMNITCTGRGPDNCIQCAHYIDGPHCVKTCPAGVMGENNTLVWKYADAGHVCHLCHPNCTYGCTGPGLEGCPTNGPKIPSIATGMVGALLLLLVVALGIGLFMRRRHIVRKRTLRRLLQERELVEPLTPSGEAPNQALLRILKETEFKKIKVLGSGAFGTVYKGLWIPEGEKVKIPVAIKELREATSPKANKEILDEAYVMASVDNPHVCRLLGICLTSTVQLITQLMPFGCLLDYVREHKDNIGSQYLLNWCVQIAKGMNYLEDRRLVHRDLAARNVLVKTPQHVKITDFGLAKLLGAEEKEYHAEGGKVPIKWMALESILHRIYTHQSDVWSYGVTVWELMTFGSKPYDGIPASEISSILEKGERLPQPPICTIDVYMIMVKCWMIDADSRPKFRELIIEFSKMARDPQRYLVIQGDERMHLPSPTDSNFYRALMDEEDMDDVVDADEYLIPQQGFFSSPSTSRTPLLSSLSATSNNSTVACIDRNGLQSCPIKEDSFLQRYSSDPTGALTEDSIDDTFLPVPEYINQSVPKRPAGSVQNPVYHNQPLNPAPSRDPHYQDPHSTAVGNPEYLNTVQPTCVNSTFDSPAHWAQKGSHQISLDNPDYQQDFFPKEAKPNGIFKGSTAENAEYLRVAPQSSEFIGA
T1 sequence (Q06187 whole entry): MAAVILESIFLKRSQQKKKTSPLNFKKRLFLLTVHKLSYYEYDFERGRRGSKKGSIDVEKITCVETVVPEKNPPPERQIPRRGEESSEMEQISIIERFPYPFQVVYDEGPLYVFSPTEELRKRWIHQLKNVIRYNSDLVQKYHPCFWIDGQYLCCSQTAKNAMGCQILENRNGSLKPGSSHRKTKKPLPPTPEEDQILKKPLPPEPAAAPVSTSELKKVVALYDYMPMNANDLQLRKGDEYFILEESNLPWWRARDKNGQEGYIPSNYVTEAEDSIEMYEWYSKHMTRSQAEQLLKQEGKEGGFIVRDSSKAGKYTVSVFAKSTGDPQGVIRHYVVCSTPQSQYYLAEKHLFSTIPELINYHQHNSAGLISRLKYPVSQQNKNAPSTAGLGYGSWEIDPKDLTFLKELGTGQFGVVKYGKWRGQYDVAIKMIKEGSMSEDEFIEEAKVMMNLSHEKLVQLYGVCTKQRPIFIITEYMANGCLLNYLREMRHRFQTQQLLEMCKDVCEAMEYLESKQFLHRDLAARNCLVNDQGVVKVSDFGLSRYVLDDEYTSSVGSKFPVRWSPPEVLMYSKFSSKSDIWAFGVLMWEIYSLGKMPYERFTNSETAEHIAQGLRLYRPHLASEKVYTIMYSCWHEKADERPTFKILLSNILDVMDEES

IC50 (BTK-WT) [nM] | IC50 (ITK) [nM] | IC50 (EGFR) [nM] | IC50 (LCK) [nM] | Compound
≤ 10 | 100 to 1000 | 1000 to 10000 | 100 to 1000 | C[C@@H]1[C@H](NC(=O)N(C)C2CC2)CCCN1c1cnc(C(N)=O)c(Nc2cnn(C)c2)n1 [Example D-314, 5-[(2R,3R)-3-{[cyclopropyl(methyl)carbamoyl]amino}-2-methylpiperidin-1-yl]-3-[(1-methyl-1H-pyrazol-4-yl)amino]pyrazine-2-carboxamide]
10 to 100 | > 10000 | 1000 to 10000 | 1000 to 10000 | Cc1c(Nc2nc(N3CCC[C@@H](NC(=O)c4ccc(C5CC5)cc4)[C@H]3C)cnc2C(N)=O)cnn1C [Example D-271, 5-[(2R,3R)-3-(4-cyclopropylbenzamido)-2-methylpiperidin-1-yl]-3-[(1,5-dimethyl-1H-pyrazol-4-yl)amino]pyrazine-2-carboxamide]
≤ 10 | 1000 to 10000 | 1000 to 10000 | 1000 to 10000 | C[C@@H]1[C@H](NC(=O)c2ccc(C(C)(C)C)cc2)CCCN1c1cnc(C(N)=O)c(Nc2cnn(C)c2)n1 [Example D-22, 5-[(2R,3R)-3-(4-tert-butylbenzamido)-2-methylpiperidin-1-yl]-3-[(1-methyl-1H-pyrazol-4-yl)amino]pyrazine-2-carboxamide]
> 10000 | > 10000 | > 10000 | > 10000 | C[C@@H]1[C@H](NC(=O)c2ccc(C3CC3)cc2)CCCN1c1cnc(C(N)=O)c(NCC2=CCN(C)CC2)n1 [Example D-300, 5-[(2R,3R)-3-(4-cyclopropylbenzamido)-2-methylpiperidin-1-yl]-3-{[(1-methyl-1,2,3,6-tetrahydropyridin-4-yl)methyl]amino}pyrazine-2-carboxamide]
≤ 10 | 10 to 100 | 1000 to 10000 | 10 to 100 | C[C@@H]1[C@H](NC(=O)c2ccc3nccn3c2)CCCN1c1cnc(C(N)=O)c(Nc2cnn(C)c2)n1 [Example D-266, 5-[(2R,3R)-3-(imidazo[1,2-a]pyridine-6-amido)-2-methylpiperidin-1-yl]-3-[(1-methyl-1H-pyrazol-4-yl)amino]pyrazine-2-carboxamide]
≤ 10 | 100 to 1000 | 1000 to 10000 | 10 to 100 | CC(=O)N1CCC(n2cc(Nc3nc(N4CCC[C@@H](NC(=O)c5ccc(C6CC6)cc5)[C@H]4C)cnc3C(N)=O)cn2)CC1 [Example D-283, 3-{[1-(1-acetylpiperidin-4-yl)-1H-pyrazol-4-yl]amino}-5-[(2R,3R)-3-(4-cyclopropylbenzamido)-2-methylpiperidin-1-yl]pyrazine-2-carboxamide]
≤ 10 | 100 to 1000 | > 10000 | 100 to 1000 | C[C@@H]1[C@H](NC(=O)c2ccc(C3CC3)cc2)CCCN1c1cnc(C(N)=O)c(Nc2cnn(CC#N)c2)n1 [Example D-287, 3-{[1-(cyanomethyl)-1H-pyrazol-4-yl]amino}-5-[(2R,3R)-3-(4-cyclopropylbenzamido)-2-methylpiperidin-1-yl]pyrazine-2-carboxamide]
≤ 10 | 100 to 1000 | 1000 to 10000 | 10 to 100 | C[C@@H]1[C@H](NC(=O)c2ccc(C(C)(C)F)cc2)CCCN1c1cnc(C(N)=O)c(Nc2cnn(C)c2)n1 [Example D-251, 5-[(2R,3R)-3-[4-(2-fluoropropan-2-yl)benzamido]-2-methylpiperidin-1-yl]-3-[(1-methyl-1H-pyrazol-4-yl)amino]pyrazine-2-carboxamide]
